Columns and labels:
Type in all cases: physicochemical
[1] = Uniformity of distribution of the active ingredients in the blend by HPLC
Procedure: It is usually determined according to known methods, for instance by taking samples from different parts of the powder and testing the component by HPLC or other equivalent analytical methods.
The uniformity of distribution of the active ingredients was evaluated by withdrawing 12 samples from different parts of the blend and evaluated by HPLC.

[2] = Particle size distribution (PSD) by Malvern analysis, initially and after open-tray exposure
Procedure: The size of the particles active is determined by measuring the characteristic equivalent sphere diameter, known as volume diameter, by laser diffraction. […] However, other equivalent apparatus may be used.
(§1) Thin layer (˜0.5 cm) in open tray for 3 days at 30° C./65% relative humidity (RH);
(§2) Thin layer (˜0.5 cm) in open tray for 4 hours at 25° C./90% RH
(i) particle size distribution (PSD) in terms of d(v0.1), d(v0.5) and d(v0.9) by Malvern analysis, […]

[3] = Specific Surface Area (SSA) by BET nitrogen adsorption
Procedure: (§3) Co-micronized microparticles and reference micronized glycopyrronium bromide were exposed to the following conditions:
as §1, §2
(2) Specific Surface Area (SSA) by Brunauer-Emmett-Teller (BET) nitrogen adsorption method according to a known procedure, and […]

[4] = Recrystallization water by Dynamic Vapour Sorption (DVS)
Procedure: as §3, §1, §2
(3) recrystallization of water using a Dynamic Vapour Sorption (DVS) instrument (Mettler Toledo GmbH, Switzerland).

[5] = Aerosol performance by Next Generation Impactor (NGI) from multidose dry powder inhaler; details: for Mid Fine Particle Mass: between 2.0 and 5.0 micron; for Fine Particle Mass: particle size equal to or lower than 5.0 micron
Procedure: It is calculated by the percentage ratio of the fine particle mass (formerly fine particle dose) to the delivered dose.
The delivered dose is calculated from the cumulative deposition in the apparatus, while the fine particle mass is calculated from the deposition of particles having a diameter <5.0 microns.
After aerosolization of 3 doses from the inhaler device, the NGI apparatus was disassembled and the amounts of drug deposited in the stages were recovered by washing with a solvent mixture and then quantified by High-Performance Liquid Chromatography (HPLC).

[6] = Open thin layer 4 hours at 25° C./90% RH
[7] = Open thin layer 3 days at 30° C./65% RH
[8] = Example 3 formulation (6/100/12.5 μg)
[9] = Example 4 formulation (6/100/25 μg)

In the case of `CCC(=O)OCC(=O)[C@@]1(OC(=O)CC)[C@@H](C)C[C@H]2[C@@H]3CCC4=CC(=O)C=C[C@]4(C)[C@@]3(Cl)[C@@H](O)C[C@@]21C` [BDP, beclometasone dipropionate], the Uniformity of distribution ([1]; Example 3 formulation (FF 6 μg/BDP 100 μg/GB 12.5 μg per 10 mg carrier), 12 samples, mean value±RSD) is reported as 101.8 (±1.1) and the Uniformity of distribution ([1]; Example 4 formulation (FF 6 μg/BDP 100 μg/GB 25 μg per 10 mg carrier)) is reported as 100.2 (±1.2).
For `C[N+]1(C)CCC(OC(=O)C(O)(c2ccccc2)C2CCCC2)C1` (racemic) [GB, glycopyrronium bromide], the “PSD D(v0.9)” value ([2]; Initial) was 3.95 μm, the “PSD d(v0.1)” value ([2]; Initial) was 0.60 μm and the “PSD d(v0.5)” value ([2]; Initial) was 1.54 μm. For the same compound, the “PSD D(v0.9)” value [2, 6] was 1657 μm, the “PSD d(v0.1)” value [2, 6] was 2.74 μm and the “PSD d(v0.5)” value [2, 6] was 156 μm. The “PSD D(v0.9)” value [2, 7] was 7.59 μm, the “PSD d(v0.1)” value [2, 7] was 1.00 μm and the “PSD d(v0.5)” value [2, 7] was 3.91 μm. It also gave an SSA ([3]; Initial) of 7.31 m^2/g, an SSA [3, 7] of 1.85 m^2/g and a Re-crystallization water ([4]; Initial) of 0.12 % w/w. For the same compound, the Re-crystallization water [4, 7] was 0.02% w/w, the “Extrafine Particle Fraction <1 μm” value [5, 8] was 15.4% and the “Extrafine Particle Fraction <2 μm” value [5, 8] was 37.6%. The “Extrafine Particle Mass <1 μm” value [5, 8] was 1.8 µg, the “Extrafine Particle Mass <2 μm” value [5, 8] was 4.39 µg and the “Fine Particle Fraction” value [5, 8] was 67.2%. The MMAD [5, 8] was 1.92 μm, the “Mid Fine particle Fraction” value [5, 8] was 29.6% and the “Mid Fine Particle Mass” value [5, 8] was 3.46 µg. For the same compound, the “Delivered Dose” value ([5]; Example 3 formulation (6/100/12.5 μg), mean±S.D) was 11.66 (±0.4) μg, the “Fine Particle Mass” value [5, 8] was 7.85 µg and the “Delivered Dose” value [5, 9] was 21.30 µg. For the same compound, the “Extrafine Particle Fraction <1 μm” value [5, 9] was 8.2%, the “Extrafine Particle Fraction <2 μm” value [5, 9] was 25.8% and the “Extrafine Particle Mass <1 μm” value [5, 9] was 1.75 µg. For the same compound, the “Extrafine Particle Mass <2 μm” value [5, 9] was 5.49 µg, the “Fine Particle Fraction” value [5, 9] was 50.7% and the MMAD [5, 9] was 2.15 μm. For the same compound, the “Mid Fine particle Fraction” value [5, 9] was 27.9%, the “Mid Fine Particle Mass” value [5, 9] was 5.94 µg and the “Fine Particle Mass” value [5, 9] was 10.8 µg.
